Data from PMC8652888, “Angiogenesis, Anti-Tumor, and Anti-Metastatic Activity of Novel α-Substituted Hetero-Aromatic Chalcone Hybrids as Inhibitors of Microtubule Polymerization” (Frontiers in Chemistry, 2021).
Like-named read-outs stand apart in the source and are kept apart here.

Legend:
U937 = experiment: Antiproliferative activity, CCK-8 assay; format: cell-based; conditions: Homo sapiens, U-937
Description: (§1) The synthesized compounds were first evaluated for their cytotoxic effect on MCF-7 (human breast adenocarcinoma), U937 (histiocytic lymphoma cancer), HepG2 (human liver cancer) cells, and MGC-803 (human gastric cancer) using the SRB and CCK-8 assay. As reference compounds CA-4 and colchicine were included.
(§2) The primary tumor cells were purchased from a professional biomedical company. First, the primary tumor cells were incubated in a cell culture incubator at 37°C and 5% CO2. After the cell fusion reached 85%–95%, subculture was performed, and the tumor cells obtained at this time were used for subsequent related experiments. The CCK-8 method was used to inhibit the proliferation of U937 tumor cells, and the SRB method was used to inhibit the proliferation of MCF7 and HepG2 tumor cells.
The cells in the logarithmic growth phase were seeded in a 96-well plate at 8,000/well, and the drug-containing medium and cell suspension were added to the well. Three wells were added with the blank medium as the blank group. The 96-well plate was incubated for 72 h in a 37°C, 5% CO2 incubator. The 10 μl of CCK-8 dye solution was added to each well, and the incubation continued for 3–4 h.

MCF-7 = experiment: Antiproliferative activity, SRB assay; format: cell-based, human; conditions: Homo sapiens;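 note: proliferation of MCF7 cells quantified by sulforhodamine B staining, with optical density read at 560 nm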
HepG2 = experiment: Antiproliferative activity, SRB assay; format: cell-based, human; conditions: Homo sapiens, HepG2
Description: as §1, §2
Cells were distributed into 96-well plates with a density of 3 × 10^3–4 × 10^3 cells per well and incubated for 24 h in a 5% CO2 incubator at 37°C, followed by treatment with study compounds at different concentrations at 37°C for 72 h. One hundred microliters of 10% (w/v) trichloroacetic acid was added to each well, fixed at 4°C for 30 min, and dried at 65°C. Then 100 μl of 0.4% SRB was added to each well and stained on a shaker for 20 min at room temperature. The excess dye solution was washed with newly prepared 1% glacial acetic acid and dried at 65°C. One hundred fifty microliters of 10 mM unbuffered Trisbase was added to each well of the plate and shaken for 5 min to dissolve the dye. The microplate reader measured the optical density (OD) at a wavelength of 560 nm.

[1] = 72 h, triplicate, mean ± SD, read-out: IC50 ± SD, U937
[2] = MCF7, 72 h, 72 h, triplicate, mean ± SD, read-out: IC50 ± SD, MCF-7
[3] = MCF7, supplement raw data of table 2, read-out: IC50(MCF-7)
[4] = 72 h, triplicate, mean ± SD, read-out: IC50 ± SD, HepG2
[5] = supplement raw data of table 2, read-out: IC50(Hepg2)
[6] = supplement raw data of table 2, read-out: IC50(U937)

| Structure (SMILES) | IC50 (U937; [1]) | IC50 (MCF-7; [2]) | IC50 (MCF-7; [3]) | IC50 (HepG2; [4]) | melting point | IC50 (HepG2; [5]) | IC50 (U937; [6]) |
| --- | --- | --- | --- | --- | --- | --- | --- |
| COc1cc(C(=O)/C(C)=C/c2c(C)[nH]c3ccccc23)cc(OC)c1OC [Compound 7b, (E)-2-methyl-3-(2-methyl-1H-indol-3-yl)-1-(3,4,5-trimethoxyphenyl)prop-2-en-1-one] | 3.08 ± 0.433 µM | 0.584 ± 0.016 µM | 0.584 µM | 10.8 ± 0.629 µM | 152.7 to 153.2 °C | – | – |
| COC(=O)c1ccc2[nH]cc(/C=C(\C)C(=O)c3cc(OC)c(OC)c(OC)c3)c2c1 [Compound 7e, methyl(E)-3-(2-methyl-3-oxo-3-(3,4,5-trimethoxyphenyl)prop-1-en-1-yl)-1H-indole-5-carboxylate] | > 20 µM | > 20 µM | – | > 20 µM | 210.4 to 213.7 °C | – | – |
| COC(=O)c1ccc2c(/C=C(\C)C(=O)c3cc(OC)c(OC)c(OC)c3)c[nH]c2c1 [Compound 7f, methyl(E)-3-(2-methyl-3-oxo-3-(3,4,5-trimethoxyphenyl)prop-1-en-1-yl)-1H-indole-6-carboxylate] | 1.61 ± 0.19 µM | 13.7 ± 0.965 µM | – | 0.193 ± 0.001 µM | 229.3 to 231.7 °C | – | – |
| COc1cc(C(=O)/C(C)=C/c2cc3ccccc3o2)cc(OC)c1OC [Compound 7h, (E)-3-(benzofuran-2-yl)-2-methyl-1-(3,4,5-trimethoxyphenyl)prop-2-en-1-one] | 0.224 ± 0.007 µM | 0.254 ± 0.01 µM | 0.255 µM | 0.116 ± 0.007 µM | 50.1 to 53.2 °C | – | – |
| COc1cc(C(=O)/C(C)=C/c2oc3ccccc3c2C)cc(OC)c1OC [Compound 7i, (E)-2-methyl-3-(3-methylbenzofuran-2-yl)-1-(3,4,5-trimethoxyphenyl)prop-2-en-1-one] | 1.18 ± 0.037 µM | 1.41 ± 0.021 µM | – | 0.879 ± 0.007 µM | 113.2 to 115.1 °C | 0.879 µM | – |
| COc1cc(C(=O)/C(C)=C/c2ccc3c(c2)CCO3)cc(OC)c1OC [Compound 7n, (E)-3-(2,3-dihydrobenzofuran-5-yl)-2-methyl-1-(3,4,5-trimethoxyphenyl)prop-2-en-1-one] | 0.011 ± 0.002 µM | 0.02 ± 0.002 µM | 0.0195 µM | 0.002 ± 0.0001 µM | – | 0.00221 µM | 0.0108 µM |
| COc1cc(C(=O)/C(C)=C/c2cc3ccccc3s2)cc(OC)c1OC [Compound 7o, (E)-3-(benzo[b]thiophen-2-yl)-2-methyl-1-(3,4,5-trimethoxyphenyl)prop-2-en-1-one] | 0.166 ± 0.003 µM | 0.187 ± 0.003 µM | 0.187 µM | 0.116 ± 0.001 µM | 81.4 to 83.2 °C | 0.116 µM | 0.166 µM |
| COc1cc(C(=O)/C(C)=C/c2cccc3c2OCO3)cc(OC)c1OC [Compound 7s, (E)-3-(benzo[d][1,3]dioxol-4-yl)-2-methyl-1-(3,4,5-trimethoxyphenyl)prop-2-en-1-one] | 0.353 ± 0.006 µM | 0.225 ± 0.005 µM | – | 0.259 ± 0.005 µM | 119.7 to 120.9 °C | 0.259 µM | 0.353 µM |
| COc1cc(C(=O)/C(C#N)=C/c2c[nH]c3ccccc23)cc(OC)c1OC [Compound 8a, (E)-3-(1H-indol-3-yl)-2-(3,4,5-trimethoxybenzoyl)acrylonitrile] | 0.14 ± 0.041 µM | 0.934 ± 0.023 µM | 0.94 µM | 0.938 ± 0.008 µM | 224.2 to 229.3 °C | 0.938 µM | 0.14 µM |
| COc1cc(C(=O)/C(C#N)=C/c2c(C)[nH]c3ccccc23)cc(OC)c1OC [Compound 8b, (E)-3-(2-methyl-1H-indol-3-yl)-2-(3,4,5-trimethoxybenzoyl)acrylonitrile] | > 20 µM | > 20 µM | – | > 20 µM | 216.5 to 218.2 °C | – | – |
| COc1cc(C(=O)/C(C#N)=C/c2c(-c3ccccc3)[nH]c3ccccc23)cc(OC)c1OC [Compound 8c, (E)-2-((l2-azaneylidene)-l3-methyl)-3-(2-phenyl-1H-indol-3-yl)-1-(3,4,5-trimethoxyphenyl)prop-2-en-1-one] | 4.49 ± 0.433 µM | 2.1 ± 0.27 µM | – | 14.1 ± 0.386 µM | 253.8 to 255.9 °C | – | – |
| COC(=O)c1cccc2[nH]cc(/C=C(\C#N)C(=O)c3cc(OC)c(OC)c(OC)c3)c12 [Compound 8d, methyl(E)-3-(2-cyano-3-oxo-3-(3,4,5-trimethoxyphenyl)prop-1-en-1-yl)-1H-indole-4-carboxylate] | 8.58 ± 0.178 µM | > 20 µM | – | > 20 µM | 176.7 to 178.2 °C | – | – |
| COC(=O)c1ccc2[nH]cc(/C=C(\C#N)C(=O)c3cc(OC)c(OC)c(OC)c3)c2c1 [Compound 8e, methyl(E)-3-(2-cyano-3-oxo-3-(3,4,5-trimethoxyphenyl)prop-1-en-1-yl)-1H-indole-5-carboxylate] | > 20 µM | > 20 µM | – | > 20 µM | > 260 °C | – | – |

Next, values leading:

| IC50 (U937; [1]) | IC50 (MCF-7; [2]) | IC50 (MCF-7; [3]) | IC50 (HepG2; [4]) | melting point | IC50 (HepG2; [5]) | IC50 (U937; [6]) | Structure (SMILES) |
| --- | --- | --- | --- | --- | --- | --- | --- |
| > 20 µM | > 20 µM | – | > 20 µM | 239.7 to 241 °C | – | – | COC(=O)c1ccc2c(/C=C(\C#N)C(=O)c3cc(OC)c(OC)c(OC)c3)c[nH]c2c1 [Compound 8f, methyl(E)-3-(2-cyano-3-oxo-3-(3,4,5-trimethoxyphenyl)prop-1-en-1-yl)-1H-indole-6-carboxylate] |
| 2.51 ± 0.029 µM | 2.161 ± 0.009 µM | – | 1.43 ± 0.049 µM | 266.5 to 268.2 °C | – | – | COc1cc(C(=O)/C(C#N)=C/c2c[nH]c3cc(Br)ccc23)cc(OC)c1OC [Compound 8g, (E)-3-(6-bromo-1H-indol-3-yl)-2-(3,4,5-trimethoxybenzoyl)acrylonitrile] |
| > 20 µM | > 20 µM | – | > 20 µM | 168.3 to 169.5 °C | – | – | COc1cc(C(=O)/C(C#N)=C/c2cc3ccccc3o2)cc(OC)c1OC [Compound 8h, (E)-3-(benzofuran-2-yl)-2-(3,4,5-trimethoxybenzoyl)acrylonitrile] |
| > 20 µM | > 20 µM | – | > 20 µM | 136.7 to 138.5 °C | – | – | COc1cc(C(=O)/C(C#N)=C/c2oc3ccccc3c2C)cc(OC)c1OC [Compound 8i, (E)-3-(3-methylbenzofuran-2-yl)-2-(3,4,5-trimethoxybenzoyl)acrylonitrile] |
| > 20 µM | > 20 µM | – | > 20 µM | 176.5 to 178.4 °C | – | – | COc1cc(C(=O)/C(C#N)=C/c2coc3ccccc23)cc(OC)c1OC [Compound 8j, (E)-3-(benzofuran-3-yl)-2-(3,4,5-trimethoxybenzoyl)acrylonitrile] |
| 14.31 ± 0.127 µM | 16.43 ± 0.042 µM | – | 18.74 ± 0.035 µM | 160.1 to 163.8 °C | 18.7 µM | 14.3 µM | COc1cc(C(=O)/C(C#N)=C/c2cc3c(cc2[N+](=O)[O-])OCO3)cc(OC)c1OC [Compound 8k, (E)-3-[6-nitrobenzo(d)(1,3)dioxol-5-yl]-2-(3,4,5-trimethoxybenzoyl)acrylonitrile] |
| > 20 µM | > 20 µM | – | > 20 µM | 181.3 to 182.6 °C | – | – | COc1cc(C(=O)/C(C#N)=C/c2ccc3oc4ccccc4c3c2)cc(OC)c1OC [Compound 8l, (E)-3-[dibenzo (b,d)furan-2-yl]-2-(3,4,5-trimethoxybenzoyl)acrylonitrile] |
| > 20 µM | > 20 µM | – | > 20 µM | 169.7 to 172.1 °C | – | – | COc1cc(C(=O)/C(C#N)=C/c2ccc3occc3c2)cc(OC)c1OC [Compound 8m, (E)-3-(benzofuran-5-yl)-2-(3,4,5-trimethoxybenzoyl)acrylonitrile] |
| 9.25 ± 0.141 µM | > 20 µM | – | > 20 µM | – | – | – | COc1cc(C(=O)/C(C#N)=C/c2ccc3c(c2)CCO3)cc(OC)c1OC [Compound 8n, (E)-3-(2,3-dihydrobenzofuran-5-yl)-2-(3,4,5-trimethoxybenzoyl)acrylonitrile] |
| > 20 µM | 14.74 ± 0.141 µM | – | 1.701 ± 0.013 µM | 187.5 to 189.3 °C | – | – | COc1cc(C(=O)/C(C#N)=C/c2cc3ccccc3s2)cc(OC)c1OC [Compound 8o, (E)-3-[benzo(b)thiophen-2-yl]-2-(3,4,5-trimethoxybenzoyl)acrylonitrile] |
| > 20 µM | > 20 µM | – | > 20 µM | 201.8 to 203.1 °C | – | – | COc1cc(C(=O)/C(C#N)=C/c2csc3ccccc23)cc(OC)c1OC [Compound 8p, (E)-3-[benzo(b)thiophen-3-yl]-2-(3,4,5-trimethoxybenzoyl)acrylonitrile] |
